pIC50: −log10 of the molar value.
Legend:
[1] = tested on: HaCaT cells; assay: HaCaT keratinocyte proliferation assay (cell counting); type: cell-based, human
Protocol: Anthralin, an antipsoriatic drug, was used as a positive control. Antiproliferative activity was measured directly by counting the dispersed cells under a phase-contrast microscope.
HaCaT keratinocyte proliferation assay and LDH release were described previously in full detail (Muller et al. J. Med. Chem. 39: 3132-3138, 1996; Müller et al. J. Med. Chem. 37: 1660-1669, 1994). For the cancer cell line studies, exponentially growing cells were seeded at 1,000 cells per well in six-well plates and allowed to attach for 24 h. Compounds of the invention or β-lapachone, solubflized in DMSO, were added to the wells in micromolar concentrations. Control wells were treated with equivalent volumes of DMSO. After 4 h the supernatant was removed and fresh medium was added. Cultures were observed daily for 10-15 days and then were fixed and stained. Colonies of greater than 30 cells were scored as survivors. […]

[2] = tested on: HaCaT cells; type: cell-based, human
Protocol: (§1) HaCaT keratinocyte proliferation assay and LDH release were described previously in full detail (Muller et al. J. Med. Chem. 39: 3132-3138, 1996; Müller et al. J. Med. Chem. 37: 1660-1669, 1994). For the cancer cell line studies, exponentially growing cells were seeded at 1,000 cells per well in six-well plates and allowed to attach for 24 h. Compounds of the invention or β-lapachone, solubflized in DMSO, were added to the wells in micromolar concentrations. Control wells were treated with equivalent volumes of DMSO. After 4 h the supernatant was removed and fresh medium was added. Cultures were observed daily for 10-15 days and then were fixed and stained. Colonies of greater than 30 cells were scored as survivors.
The cytotoxicity of naphthoquinones has been thought to result, at least in part, from reactive oxygen species, generated during redox cycling between the […] and reduction products (Munday, R., Free Radic. Biol. Med., 22, 689-695, 1997), which cause peroxidative damage to membrane lipids. To assess the correlation of keratinocyte growth inhibition with membrane damage, the release of lactate dehydrogenase from the treated cells was also quantitated.

[3] = tested on: colon cancer cell line DLD1; assay: Cancer cell line colony survival assay, DLD1; type: cell-based, human; conditions: Homo sapiens, DLD-1, read-out: AA in Cancer Cell Lines IC50 (μM) DLD1
Protocol: as §1

[4] = tested on: colon cancer cell line SW480; assay: Cancer cell line colony survival assay, SW480; type: cell-based, human; conditions: Homo sapiens, SW480, read-out: AA in Cancer Cell Lines IC50 (μM) SW480
Protocol: as §1

[5] = tested on: breast cancer cell line MCF7; assay: Cancer cell line colony survival assay, MCF7; type: cell-based, human; conditions: Homo sapiens, MCF7, read-out: AA in Cancer Cell Lines IC50 (μM) MCF7
Protocol: as §1

[6] = tested on: human cancer cell lines; conditions: wide spectrum of human cancer cell lines; read-out: antineoplastic activity against human cancer cell lines (IC50); cited from earlier work
[7] = tested on: normal fresh or proliferating human PBMC; conditions: cited from earlier work
[8] = tested on: human keratinocyte cell line HaCaT; conditions: Müller et al., J. Nat. Prod. 62 (1999); cited from earlier work
[9] = tested on: cancer cell lines and normal cells; conditions: Li et al., PNAS 2003; cited from earlier work

Question: Which “inhibition of HaCaT cell proliferation (in words)” value ([1]; HaCaT cells) does the source give for `CC1(C)CCC2=C(O1)c1ccccc1C(=O)C2=O` [β-lapachone, reference compound] here?
Answer: inhibited cell proliferation

Question: What about the IC50 ([1]; Homo sapiens, HaCaT, read-out: AA in HaCaT Cells IC50 (μM)) of the same molecule?
Answer: 0.7 µM

Question: What about the “LDH release compared to vehicle control (in words)” value [2] of the same molecule?
Answer: significant LDH release as compared to vehicle

Question: And the “LDH (mU)” value ([2]; human, 2 μM)?
Answer: 329 mU

Question: And the IC50 [3]?
Answer: 4 µM

Question: And the IC50 [4]?
Answer: 4 µM

Question: What about the IC50 [5] of the same molecule?
Answer: ≤ 1 µM

Question: What about the pIC50 [6] of the same molecule?
Answer: 5.00 to 6.00

Question: What about the “cytotoxic effects on normal human PBMC” value [7] of the same molecule?
Answer: No cytotoxic effects were observed

Question: What about the “inhibition of keratinocyte growth in HaCaT model (in words)” value [8] of the same molecule?
Answer: inhibition of keratinocyte growth comparable to the antipsoriatic drug anthralin

Question: What about the “induction of apoptosis in cancer versus normal cells” value [9] of the same molecule?
Answer: induces apoptosis only in cancer cell lines and not in normal cells
